Laboratory results reported in patent US20120135053A1, “NANOPARTICULATE TELMISARTAN COMPOSITIONS AND PROCESS FOR THE PREPARATION THEREOF” (priority 2009, published 2012).
Read-outs that look alike come from different tables or passages of the source.

Experiments:
[1] = cited from earlier work
[2] = cited from earlier work; remark: listed apart in the source
[3] = tested on: plasma proteins, mainly albumin and α1—acid glycoprotein; details: cited from earlier work
[4] = Visual observation of wettability by stereomicroscope; type: physicochemical; details: one drop of distillate water on 0.1 mg powder
[5] = Comparative dissolution test in distillate water; type: physicochemical; details: UV-VIS
Description: The suspension was stirred for 1, 5, 10, 20 and 60 minutes and then it was filtered by 0.2 μm disposable syringe filter. Telmisartan concentration was determined by UV-VIS spectrophotometer (Agilent 8453).

[6] = in vivo; details: male, Wistar, rat, po, 30 mg/kg
Description: Both test substances were administered via gastric tube in a dosing volume of 5 ml/kg. The vehicle of the test items was sterile 0.9% NaCl solution and the suspension was kept homogenous by continuous stirring during treatment in order to minimize the error resulting from the sedimentation.
Male Wistar rats (purchased from Laboratory Animal Center, University of Szeged) were maintained on a standard pellet rodent diet (Bioplan Ltd, Isaszeg, Hungary) under temperature and light-controlled conditions with tap water available ad libitum. The acclimatization period was at least 4 days. […] All animals were fasting for 16 hours before oral treatment. […] Water was available immediately after treatment for all animals. […] Serum samples were prepared by centrifugation (7000 rpm, 10 min, 4° C.) of the clotted blood within 60 minutes and were stored at −20° C. till analysis.
An aliquot of 200 μl serum was combined with 20 μl of internal standard working solution and 1.2 ml acetonitrile for protein precipitation. The mixture was vortexed for 1 min and centrifuged at 12000 rpm for 10 min at 4° C. The supernatants were evaporated to dryness under a stream of nitrogen at 40° C. and reconstituted with 200 μl of water—methanol (50:50 v/v) and 20 μl was injected into the HPLC system.
Unpaired t-test was used to statistically compare the serum concentrations belonging to the same time points. […]

For CCCc1nc2c(C)cc(-c3nc4ccccc4n3C)cc2n1Cc1ccc(-c2ccccc2C(=O)O)cc1 [Telmisartan, 4′-[(1,4′-dimethyl-2′-propyl [2,6′-bi-1H-benzimidazol]-1′-yl)methyl]-[1,1′-biphenyl]-2-carboxylic acid], the solubility ([1]; hydrochloric acid) is given as “insoluble”, the solubility ([1]; strong acid) is given as “sparingly soluble” and the solubility ([1]; strong base) is given as “soluble”. The solubility ([1]; water and pH range of 3 to 9) was “practically insoluble”, the “reduction in AUC by food” value ([2]; 40 mg tablet) was “about 6%” and the absolute bioavailability ([2]; 40 mg) was 42%. For the same molecule, the “reduction in AUC by food” value ([2]; 160 mg dose) was “about 20%”, the absolute bioavailability ([2]; 160 mg) was 58% and the “glucuronide share of the measured radioactivity in plasma” value ([2]; after a single dose) was “approximately 11%”. The “involvement of cytochrome P450 isoenzymes in metabolism” value ([2]; in vivo) was “not involved”, the “terminal elimination half life” value ([2]; in vivo) was “approximately 24 hours” and the total plasma clearance ([2]; in vivo) was over 800 mL/min. The volume of distribution ([2]; in vivo) was “approximately 500 liters”, the “amount found in urine, % of total radioactivity” value ([2]; intravenous 14C-labeled Telmisartan) was 0.91% and the “administered dose eliminated unchanged in feces via biliary excretion” value ([2]; intravenous or oral 14C-labeled Telmisartan) was over 97%. For the same molecule, the “plasma concentrations with once daily dosing, % of peak plasma concentrations” value ([2]; once daily dosing) was 10-25%, the “amount found in urine, % of total radioactivity” value ([2]; oral 14C-labeled Telmisartan) was 0.49% and the “accumulation index in plasma” value ([2]; repeated once daily dosing) was 1.5 to 2.0. For the same molecule, the plasma protein binding [3] was over 99.5%, the wettability [4] was “stayed in their aggregated state” and the “dissolved Telmisartan content” value [5] was “cannot be detected”. For the same molecule, the AUC [6] was 15700 ng·h/mL.
